Experimental findings from ChEMBL document CHEMBL1201862, “PubChem BioAssay data set” (2004) are described below.

What all share (format): functional
Experiment [1] deals with T1, Orexin/Hypocretin receptor type 1 (Homo sapiens, UniProt O43613).
T1 sequence (O43613 whole entry): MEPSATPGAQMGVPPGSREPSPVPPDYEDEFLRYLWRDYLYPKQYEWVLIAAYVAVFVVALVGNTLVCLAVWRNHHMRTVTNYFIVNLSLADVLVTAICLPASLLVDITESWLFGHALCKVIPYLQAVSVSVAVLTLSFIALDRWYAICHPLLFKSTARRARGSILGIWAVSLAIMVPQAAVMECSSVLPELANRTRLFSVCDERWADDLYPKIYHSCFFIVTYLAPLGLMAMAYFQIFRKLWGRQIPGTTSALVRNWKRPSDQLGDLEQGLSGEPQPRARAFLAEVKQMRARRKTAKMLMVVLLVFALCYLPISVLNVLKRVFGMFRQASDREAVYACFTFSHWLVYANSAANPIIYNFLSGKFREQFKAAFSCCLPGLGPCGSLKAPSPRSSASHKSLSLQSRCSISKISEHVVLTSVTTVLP
Description: Fluorescence-based cell-based high throughput dose response assay for antagonists of the orexin 1 receptor (OX1R; HCRTR1). [Related pubchem assays (depositor defined):AID434989, AID435008, AID463079, AID485270, AID492963, AID492964, AID492965, AID493232, AID504717, AID504718].

The target of experiment [2] is T1, Orexin/Hypocretin receptor type 1. Briefly: Homogeneous Time Resolved Fluorescence (HTRF)-based cell-based high throughput dose response assay for antagonists of the orexin 1 receptor (OX1R; HCRTR1). [Related pubchem assays (depositor defined):AID434989, AID435008, AID463079, AID485270, AID492963, AID492964, AID492965, AID493232, AID504717, AID504718]. (In general: TR-FRET usually uses a lanthanide donor and a delayed reading to cut background.)

A short description of experiment [3]: Counterscreen for antagonists of the orexin 1 receptor (OX1R; HCRTR1): Fluorescence-based cell-based high throughput dose response assay to identify antagonists of the parental CHO cell line. [Related pubchem assays (depositor defined):AID434989, AID435008, AID463079, AID485270, AID492963, AID492964, AID492965, AID493232, AID504699, AID504701].
Experiment [4] concerns the target T2, Orexin receptor type 2 (Homo sapiens, UniProt O43614).
T2 sequence (O43614 whole entry): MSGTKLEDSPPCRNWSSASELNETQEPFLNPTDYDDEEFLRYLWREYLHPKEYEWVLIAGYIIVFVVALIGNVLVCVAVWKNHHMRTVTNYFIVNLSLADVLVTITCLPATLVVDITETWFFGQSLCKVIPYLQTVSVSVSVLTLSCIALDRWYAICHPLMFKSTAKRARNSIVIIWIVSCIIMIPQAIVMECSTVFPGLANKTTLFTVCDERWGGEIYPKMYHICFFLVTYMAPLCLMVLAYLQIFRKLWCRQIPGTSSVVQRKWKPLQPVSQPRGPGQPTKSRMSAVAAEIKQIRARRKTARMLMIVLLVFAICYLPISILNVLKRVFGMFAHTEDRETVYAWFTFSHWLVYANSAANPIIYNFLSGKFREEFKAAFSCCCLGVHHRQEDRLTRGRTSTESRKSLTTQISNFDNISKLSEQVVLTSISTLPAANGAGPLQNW
Description: Counterscreen assay for antagonists of the orexin 1 receptor (OX1R; HCRTR1): Homogeneous Time Resolved Fluorescence (HTRF)-based cell-based dose response assay for antagonists of the orexin 2 receptor (OX2R; HCRTR2), run by assay provider.

For experiment [5], the target named is T2, Orexin receptor type 2. Briefly: Counterscreen assay for antagonists of the orexin 1 receptor (OX1R; HCRTR1): Fluorescence-based cell-based dose response assay for antagonists of the orexin 2 receptor (OX2R; HCRTR2), run by assay provider. (In general: Counterscreens check selectivity or assay interference.)
The next experiment has as its system CHO-K1. Briefly: Counterscreen for antagonists of the orexin 1 receptor (OX1R; HCRTR1): Homogeneous time resolved fluorescence (HTRF)-based cell-based dose response assay to identify antagonists of the parental CHO-K1 cell line. [Related pubchem assays (depositor defined):AID434989, AID435008, AID463079, AID485270, AID492963, AID492964, AID492965, AID493232, AID504699, AID504701]. The following applies: Cricetulus griseus.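 Further: potency for inhibition of ATP-stimulated IP1 production as antagonists.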

The test system of another experiment is H4. Description: Luminescence Cell-Based Dose Response HTS to Identify Activators of 5'UTR Stem-Loop Driven Prion Protein mRNA Translation in H4 Neuroglioblastoma Cells. [Related pubchem assays: 1829 (Project Summary), 1814 (Primary HTS)]. The following applies: Homo sapiens.
A short description of experiment [6]: Luminescence Cell-Based Dose Response HTS to Identify Activators of Luciferase Translation or Activity in H4 […] Cells. [Related pubchem assays: 1829 (Project Summary), 1814 (Primary HTS)].
Experiment [7] in a line: Luminescence Cell-Based Dose Confirmation HTS to Identify Activators of 5'UTR Stem-Loop Driven Alpha-Synuclein mRNA Translation in H4 Neuroglioblastoma Cells. [Related pubchem assays: 1829 (Project Summary), 1814 (Primary HTS)].
The target in experiment [8] is T3, Caspase-3 (Homo sapiens, UniProt P42574).
T3 sequence (P42574 whole entry): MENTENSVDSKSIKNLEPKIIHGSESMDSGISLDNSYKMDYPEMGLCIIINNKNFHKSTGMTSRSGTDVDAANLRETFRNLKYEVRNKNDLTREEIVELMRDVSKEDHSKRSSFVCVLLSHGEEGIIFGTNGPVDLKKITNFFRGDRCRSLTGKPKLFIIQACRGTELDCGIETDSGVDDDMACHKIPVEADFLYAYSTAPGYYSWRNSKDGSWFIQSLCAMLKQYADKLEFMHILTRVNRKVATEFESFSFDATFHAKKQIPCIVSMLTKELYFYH
Briefly: SAR Analysis of small molecule inhibitors of Sentrin-specific proteases (SENPs) using a Caspase-3 Selectivity assay. [Related pubchem assays (depositor defined):AID2540, AID2599, AID434973, AID489001].

The target in experiment [9] is T4, Sentrin-specific protease 8 (Homo sapiens, UniProt Q96LD8).
T4 sequence (Q96LD8 whole entry): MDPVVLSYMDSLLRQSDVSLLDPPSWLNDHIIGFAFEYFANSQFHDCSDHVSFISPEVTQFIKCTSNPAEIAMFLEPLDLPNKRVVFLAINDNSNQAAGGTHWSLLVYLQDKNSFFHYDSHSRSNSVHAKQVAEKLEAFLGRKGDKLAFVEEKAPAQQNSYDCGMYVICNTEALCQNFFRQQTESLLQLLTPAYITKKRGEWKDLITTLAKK
Briefly: SENP8 protease inhibitors, SAR follow-up, biochemical, luminescence (AID 504501).

Experiment [10] deals with T5, Sentrin-specific protease 7 (Homo sapiens, UniProt Q9BQF6).
T5 sequence (Q9BQF6 whole entry): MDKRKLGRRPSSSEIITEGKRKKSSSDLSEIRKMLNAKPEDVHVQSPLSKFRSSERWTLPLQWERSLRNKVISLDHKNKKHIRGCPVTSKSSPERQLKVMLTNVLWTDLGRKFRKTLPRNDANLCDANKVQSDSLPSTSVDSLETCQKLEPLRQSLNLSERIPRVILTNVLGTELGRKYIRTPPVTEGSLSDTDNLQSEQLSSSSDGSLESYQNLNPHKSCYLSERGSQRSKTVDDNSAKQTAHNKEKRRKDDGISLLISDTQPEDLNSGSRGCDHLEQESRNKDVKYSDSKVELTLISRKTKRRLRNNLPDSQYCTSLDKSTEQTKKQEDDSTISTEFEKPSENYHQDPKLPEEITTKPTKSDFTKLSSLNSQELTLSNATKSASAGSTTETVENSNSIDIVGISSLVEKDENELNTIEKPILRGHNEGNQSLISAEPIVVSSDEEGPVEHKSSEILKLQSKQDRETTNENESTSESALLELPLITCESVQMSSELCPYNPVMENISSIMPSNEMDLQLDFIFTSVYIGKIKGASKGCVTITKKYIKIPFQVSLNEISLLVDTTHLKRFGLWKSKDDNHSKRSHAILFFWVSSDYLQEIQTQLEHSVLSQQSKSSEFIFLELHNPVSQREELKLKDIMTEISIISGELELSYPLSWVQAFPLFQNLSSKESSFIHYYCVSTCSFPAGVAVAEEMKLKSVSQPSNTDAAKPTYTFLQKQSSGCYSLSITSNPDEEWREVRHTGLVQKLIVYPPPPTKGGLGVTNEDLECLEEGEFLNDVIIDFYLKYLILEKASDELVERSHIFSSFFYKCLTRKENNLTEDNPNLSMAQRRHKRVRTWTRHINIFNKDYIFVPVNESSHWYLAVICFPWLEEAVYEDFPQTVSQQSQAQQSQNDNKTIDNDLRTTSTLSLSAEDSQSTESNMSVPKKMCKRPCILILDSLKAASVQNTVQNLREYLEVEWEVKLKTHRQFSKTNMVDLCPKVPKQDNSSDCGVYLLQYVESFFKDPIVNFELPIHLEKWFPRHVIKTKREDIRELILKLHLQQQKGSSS
Description: SENP7 protease inhibitors, SAR follow-up, biochemical, luminescence (AID 504497).

Experiment [11] concerns the target T5, Sentrin-specific protease 7. Briefly: SENP7 protease inhibitors, SAR follow-up, biochemical, luminescence, set 2 (AID 588600).
In experiment [12] the target is T6, Sentrin-specific protease 6 (Homo sapiens, UniProt Q9GZR1).
T6 sequence (Q9GZR1 whole entry): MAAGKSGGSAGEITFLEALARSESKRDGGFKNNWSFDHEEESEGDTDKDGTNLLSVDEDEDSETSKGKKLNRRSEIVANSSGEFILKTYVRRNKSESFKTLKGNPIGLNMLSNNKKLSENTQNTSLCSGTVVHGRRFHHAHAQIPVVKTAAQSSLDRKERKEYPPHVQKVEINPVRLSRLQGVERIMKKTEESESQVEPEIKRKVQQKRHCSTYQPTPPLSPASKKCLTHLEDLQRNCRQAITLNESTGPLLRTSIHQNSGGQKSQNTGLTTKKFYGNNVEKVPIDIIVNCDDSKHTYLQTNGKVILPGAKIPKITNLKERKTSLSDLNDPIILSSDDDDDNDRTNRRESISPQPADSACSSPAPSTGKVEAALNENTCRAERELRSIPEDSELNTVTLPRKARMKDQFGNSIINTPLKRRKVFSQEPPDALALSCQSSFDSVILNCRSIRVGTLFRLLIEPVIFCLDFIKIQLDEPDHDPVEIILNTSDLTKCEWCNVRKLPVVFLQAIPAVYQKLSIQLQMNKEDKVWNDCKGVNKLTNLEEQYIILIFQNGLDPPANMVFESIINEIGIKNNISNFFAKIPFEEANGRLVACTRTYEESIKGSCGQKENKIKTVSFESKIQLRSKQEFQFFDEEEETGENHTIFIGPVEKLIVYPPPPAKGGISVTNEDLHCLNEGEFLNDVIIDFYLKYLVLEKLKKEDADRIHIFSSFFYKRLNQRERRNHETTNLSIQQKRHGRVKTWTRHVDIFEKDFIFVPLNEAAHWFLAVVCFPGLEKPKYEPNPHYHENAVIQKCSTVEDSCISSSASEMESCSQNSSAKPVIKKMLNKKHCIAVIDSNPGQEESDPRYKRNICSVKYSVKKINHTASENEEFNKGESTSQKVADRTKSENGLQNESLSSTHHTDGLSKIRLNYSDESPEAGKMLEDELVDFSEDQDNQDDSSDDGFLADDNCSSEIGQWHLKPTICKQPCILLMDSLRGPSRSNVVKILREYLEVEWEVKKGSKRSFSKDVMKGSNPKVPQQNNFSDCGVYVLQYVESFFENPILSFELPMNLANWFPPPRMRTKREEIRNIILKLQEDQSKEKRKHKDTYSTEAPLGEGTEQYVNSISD
Briefly: SENP6 protease inhibitors, SAR follow-up, biochemical, luminescence, set 2 (AID 588598).

For experiment [13], the target named is T4, Sentrin-specific protease 8. Briefly: SENP8 protease inhibitors, SAR follow-up, biochemical, luminescence, set 2 (AID 588601).
The target in experiment [14] is T3, Caspase-3. Description: caspase-3 inhibitors as off-family protease, SAR follow-up, selectivity assay for SENP protease inhibitor project, biochemical, luminescence, set 2 (AID 588599).
The target of experiment [15] is T6, Sentrin-specific protease 6. Description: SAR Analysis of small molecule inhibitors of Sentrin-specific protease 6 (SENP6) using a Luminescent assay. [Related pubchem assays (depositor defined):AID2582, AID2599].
For experiment [16], the target named is Serine/threonine-protein kinase pim-1 (Homo sapiens, UniProt P11309).
Serine/threonine-protein kinase pim-1, sequence (P11309 whole entry): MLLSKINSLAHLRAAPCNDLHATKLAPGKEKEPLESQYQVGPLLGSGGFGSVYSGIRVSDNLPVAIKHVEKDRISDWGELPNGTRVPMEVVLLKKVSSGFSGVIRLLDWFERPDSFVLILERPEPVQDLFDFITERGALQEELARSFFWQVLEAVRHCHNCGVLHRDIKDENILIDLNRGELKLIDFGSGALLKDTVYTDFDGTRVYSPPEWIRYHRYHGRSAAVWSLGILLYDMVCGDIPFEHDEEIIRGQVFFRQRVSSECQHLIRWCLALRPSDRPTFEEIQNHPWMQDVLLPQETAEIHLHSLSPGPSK

Calls of active or inactive are those of the source. A value given as a limit tells only on which side of the number the result lay.

In the case of `CCN(CC)c1ccc(NC(=O)c2cc3ccccc3o2)c(C)c1`, the IC50 in [1] was > 49.8 µM (inactive); in [2] it was 2.43 µM (active); in [3], > 49.8 µM (inactive); on Orexin receptor type 2 [4], > 50 µM (inactive); at Orexin receptor type 2 [5], > 88.8 µM (inactive); in the experiment on CHO-K1, > 66.2 µM (inactive).

Consider `CSc1nc2ccc3nc(NC(=O)c4ccccc4)sc3c2s1`, for which the 50% inhibitory concentration (IC50) was 2.05 µM (active) in [1]; 1.13 µM (active) in [2]; > 49.7 µM (inactive) in experiment [3]; > 50 µM (inactive) on Orexin receptor type 2 [4]; > 88.8 µM (inactive) at Orexin receptor type 2 [5]; > 66.2 µM (inactive) in the experiment on CHO-K1. The EC50 with H4 was > 120 µM (not active); in experiment [6] it was 38.3 µM (active); in [7] it was 43.8 µM (active).

For `Cc1csc(C(=O)Nc2nc3ccccc3s2)c1`, the IC50 at Caspase-3 [8] was 3.6 µM (active); in [9], 3.2 µM (active); in experiment [10], 1.8 µM (active); in experiment [11] it was 19.2 µM (active); in [12], 23.4 µM (active); in [13] it was 21.4 µM (active). Further, the concentration for half-maximal inhibition (IC50) on Caspase-3 [14] was 34 µM (active); in experiment [15], 2.8 µM (active).

Turning to `Cc1ccccc1-c1noc(/C(C#N)=C\c2ccc3c(c2)OCCO3)n1`, the half-inhibitory concentration (IC50) in experiment [11] is 5.42 µM (active); in experiment [12] it was 4.82 µM (active); in experiment [13] it was > 99 µM (inactive); on Caspase-3 [14], 2.16 µM (active).

In the case of `Cc1cc(=O)n2[nH]cc(C(=O)NCc3ccccc3)c2n1`, in experiment [16], the Ki is 3.98 µM (active).

The IC50 is the midpoint of a concentration-inhibition curve. A word on the EC50: it is the concentration at which the effect is half-maximal. The term Ki denotes a dissociation constant, usually derived from enzyme kinetics or from competition with a known ligand.
